{"source": "patent US5463093A", "about": "“Palladium complexes and methods for using same in the treatment of tumors or Psoriasis” (priority 1993, dated 1995)", "key": {"DNA (CT)": {"test_system": "DNA (CT)", "test": "Cyclic voltammetry of charge interactions with DNA", "type": "biochemical", "procedure": "16, 1993. […] 18, 1993. […] 30, 1993.\nThe structures of these complexes, as shown in the Examples, were also studied by Fourier transform-infrared spectroscopy (FTIR).\nThe working electrode used a smile mercury drop, the reference electrode was Ag/AgCl wire in KCl solution housed behind a porous Vycor frit and the counter electrode was Ag/AgCl wire. A reversing scan was performed from either 0 or -0.3 Volt to -1.0 Volts at 20 μA or 100 μA sensitivity and a scan rate of 100 mv/sec. Before the reductase sample was run, 9.0 ml of acetate buffer background electrolyte at pH 5.0 was purged for 8 minutes by vigorous bubbling of nitrogen. The addition of each sample was followed by two minutes of nitrogen purging.\nIn this example, 1.0 ml of a 5 mg/ml DNA solution was added to 250 μl of a 0.12μ Poly-RC solution. […] This scan was run from 0 to -1.0 volts at 20 μA sensitivity.\nThe amount of energy transferred is calculated from the shift in the voltage and current coordinates in terms of the Nernst relation. This interpretation of shifts in electro-potential curves follows the interpretations of electrochemistry literature, e.g., Maloy, \"Factors Affecting the Shape of Current Potential Curves,\" I. Chem. Ed., 60(4):285-289 (April 1983); Rieger, Electrochemistry, Prentice Hall (1987); and Riley et al., Principles of Electroanalytical Methods, John Wiley (1987).\nFIG. 6A was run from 0 to -1.0 volts at 100 μA sensitivity, while Rigure 6B was run from -0.3 to -1.0 volts at 20 μA sensitivity.\nBoth scans were run from -0.3 to -1.0 volts at 20 μA sensitivity. […] Biochem, 51(1 and 2):221 (August 1993)."}, "tumors": {"test_system": "tumors", "test": "Compassionate IND studies in tumor patients", "type": "in vivo, human", "conditions": "for liquefaction of carcinomas, adenocarcinomas, melanomas and metastases / shrinkage of carcinomas, adenocarcinomas, melanomas and metastases: patients", "text": "(§1) Data reporting therapeutic effects are best presented by independent institutional protocols. Compassionate Investigational New Drug studies in humans involving administration of the novel polynucleotide reductases were begun in November of 1992 and are presently ongoing.\nHowever, the precise route of administration, dosage and frequency of administration is individualized for each patient and can vary over a wide range depending on the particular disease state being treated, the condition of the patient and the like."}, "[1]": {"test": "UV spectroscopy after air oxidation of the solution", "type": "physicochemical", "conditions": "ninety days of air oxidation of the solution; UV spectra", "text": "There is no UV peak. FIGS. 2B and 2C show ultraviolet spectra of Pd-Lipoic Acid Complex (Poly-RC) with a concentration of 2×10^-6 M in FIG. 2B and 10^-6 M in FIG. 2C. FIGS. 2D and 2E show ultraviolet absorbance spectra of oxidized Poly RC after ninety days of air oxidation of the solution (experiment conducted Jun 11, 1993). In FIGS. 2D and 2E, the concentration is 0.00012 M. In FIG. 2D, the spectrum is ended at 400.0 nm and 0.542 A, and a reference peak is at 289.0 nm and 0.75 A. In FIG. 2E, the spectrum is ended at 550.0 nm and 0.036 A, and a reference peak is at 396.0 nm and 0.553 A. FIG. 2F illustrates the absorbance spectra of Pd-lipoic acid complexes at varying ratios of palladium to lipoic acid at a Pd concentration of 5×10^-5 M. The ratios are 1 Pd: 1 lipoic=n 1, 1 Pd: 2 lipoic=n 2, and 1 Pd: 3 lipoic=n 3. […] The reference peak of B12 is at 361.2 nm and 0.042 A and the reference peak of B12 Ac is at 358.6 nm and 0.044 A.\nAfter ninety days of air oxidation of the Poly-RC solution, an ultraviolet spectra was again obtained on the Shimadzu UV spectrophotometer. In both instances, a 1.2×10^-4 μ solution was employed. […] FIG. 2E illustrates the visible range of the Poly RC, in which range an inflection is estimated as occurring at 396 nm. These spectra showing a shift from the fresh Poly RC solution are consistent with the view that Poly RC is a redox complex."}, "[2]": {"test_system": "Brewer's yeast (Saccharomyces cerevisae) / Baker's yeast", "test": "Induction of new yeast form (cell morphology, phase microscopy)", "type": "cell-based", "conditions": "Poly-R2 10^-7 M, 30 minutes at 28° C.", "procedure": "Brewer's yeast (Saccharomyces cerevisae) was cultured in 2.0% malt extract and 2.0% sucrose.\nThe yeast was incubated for 30 minutes at 28° C. and examined under phase microscopy."}, "[3]": {"test_system": "metastatic lesions to the liver", "conditions": "patients with metastatic lesions to the liver", "text": "as §1"}}, "note": "“Also recorded” adds a separate entry of the source."}
{"substance": "palladium-lipoic acid complex [Poly-RC]", "values": [{"measurement": "charge interaction of Poly-RC with DNA (voltammetric wave)", "setting": "DNA (CT); 250 μl of 0.12 M Poly-RC + 1.0 ml DNA 5 mg/ml, 0 to -1.0 volts, 20 μA", "value": "double peaked catalytic wave of Poly-RC was altered on the addition of DNA; also recorded: current had dropped and voltage had moved in the oxidative direction; also recorded: DNA oxidizes Poly-RC"}, {"measurement": "liquefaction of carcinomas, adenocarcinomas, melanomas and metastases", "setting": "tumors", "value": "developing non-hemorrhagic central liquefaction"}, {"measurement": "shrinkage of carcinomas, adenocarcinomas, melanomas and metastases", "setting": "tumors", "value": "shrinking"}, {"measurement": "redox state after air oxidation", "setting": "[1]", "value": "in the oxidative state"}]}
{"substance": "thiamine salt of a palladium-lipoic acid complex [Poly-R2]", "values": [{"measurement": "loss of lipid droplets during giantization of yeast cells", "setting": "[2]; FIG. 8B", "value": "lipid droplets are lost from the cell; also recorded: lipid drops are lost from the cell"}, {"measurement": "altered cell morphology of yeast cells", "setting": "[2]; phase microscopy", "value": "Large fiat cells were one kind of new variety; also recorded: altered cell morphology of yeast cells"}, {"measurement": "enlargement of the liver", "setting": "[3]", "value": "no longer palpable"}, {"measurement": "serum albumen levels", "setting": "[3]", "value": "return to normal"}, {"measurement": "magnitude of voltammetric shifts with DNA", "setting": "DNA (CT); Poly-R2 compared with Poly-RC", "value": "greater magnitude"}, {"measurement": "reduction of DNA", "setting": "DNA (CT); cyclic voltammetry", "value": "can reduce both DNA and RNA"}, {"measurement": "liquefaction of carcinomas, adenocarcinomas, melanomas and metastases", "setting": "tumors", "value": "developing non-hemorrhagic central liquefaction"}, {"measurement": "shrinkage of carcinomas, adenocarcinomas, melanomas and metastases", "setting": "tumors", "value": "shrinking"}, {"measurement": "reduction in tumor size", "setting": "tumors; terminally ill patients, objective criteria", "value": "reduction in tumor size by objective criteria"}, {"measurement": "relief of symptoms caused by various cancers", "setting": "tumors; terminally ill patients, subjective", "value": "subjective relief of symptoms"}]}
